{"source": "patent US20030114445A1", "about": "“N3-substituted 6-anilinopyrimidines and methods to treat-Gram-positive bacterial and mycoplasmal infections” (priority 2001, published 2003)", "key": {"Water solubility": {"assay": "Water solubility", "type": "physicochemical", "conditions": "25° C. stated for Compound 35", "from_the_text": "The compounds described herein have increased water solubility; some of the compounds can form salts, such as with inorganic or organic acids or with alkali metal bases, thus greatly increasing their solubilities. […] The improved water solubilities are a distinct advantage in formulation and in dosing of animals for testing, and for ultimate therapeutic use in humans."}, "[1]": {"assay": "Pharmacokinetics in mice (plasma concentration by HPLC)", "type": "in vivo", "conditions": "saline solution", "from_the_text": "Compound 59 was given to mice in simple saline solutions by various routes—subcutaneous (sc), intravenous (iv), and orally (po). High performance liquid chromatography (HPLC) on a reverse phase C 18 column was used to monitor the concentration of the compound in animal plasma, and the results were plotted as a function of time, as shown in FIG. 1.\nTmax, time to peak concentration; Cmax, peak concentration; T½, half-life; AUC(0-t), area under the curve, from 0 to time t; AUC(0-60), area under the curve, from 0 to 60 minutes; Vd, volume of distribution; Cl, clearance."}, "S. aureus (Smith strain) [2]": {"tested_on": "S. aureus (Smith strain)", "assay": "Efficacy, sc dosing of mice infected ip with S. aureus", "type": "in vivo", "conditions": "Compound 59 given sc, relative to vehicle control, FIG. 3", "from_the_text": "Compound 59 was give by the sc route to mice infected by the ip route with S. aureus (Smith strain)."}, "S. aureus (Smith strain) [3]": {"tested_on": "S. aureus (Smith strain)", "assay": "Efficacy, ip dosing of mice infected with S. aureus", "type": "in vivo", "conditions": "suspensions in saline, 5 animals, FIG. 2", "from_the_text": "Compounds 12, 19, 26, and 29 were given by the intraperitoneal (ip) route as suspensions in saline to mice previously infected with S. aureus (Smith strain). Vancomycin was used as a positive drug control and saline was used as a negative vehicle control."}, "B.subtilis pol IIIC": {"biological_target": "B.subtilis pol IIIC (Bacillus subtilis, UniProt P13267)", "sequence (P13267 whole entry, the tested form may be a part)": "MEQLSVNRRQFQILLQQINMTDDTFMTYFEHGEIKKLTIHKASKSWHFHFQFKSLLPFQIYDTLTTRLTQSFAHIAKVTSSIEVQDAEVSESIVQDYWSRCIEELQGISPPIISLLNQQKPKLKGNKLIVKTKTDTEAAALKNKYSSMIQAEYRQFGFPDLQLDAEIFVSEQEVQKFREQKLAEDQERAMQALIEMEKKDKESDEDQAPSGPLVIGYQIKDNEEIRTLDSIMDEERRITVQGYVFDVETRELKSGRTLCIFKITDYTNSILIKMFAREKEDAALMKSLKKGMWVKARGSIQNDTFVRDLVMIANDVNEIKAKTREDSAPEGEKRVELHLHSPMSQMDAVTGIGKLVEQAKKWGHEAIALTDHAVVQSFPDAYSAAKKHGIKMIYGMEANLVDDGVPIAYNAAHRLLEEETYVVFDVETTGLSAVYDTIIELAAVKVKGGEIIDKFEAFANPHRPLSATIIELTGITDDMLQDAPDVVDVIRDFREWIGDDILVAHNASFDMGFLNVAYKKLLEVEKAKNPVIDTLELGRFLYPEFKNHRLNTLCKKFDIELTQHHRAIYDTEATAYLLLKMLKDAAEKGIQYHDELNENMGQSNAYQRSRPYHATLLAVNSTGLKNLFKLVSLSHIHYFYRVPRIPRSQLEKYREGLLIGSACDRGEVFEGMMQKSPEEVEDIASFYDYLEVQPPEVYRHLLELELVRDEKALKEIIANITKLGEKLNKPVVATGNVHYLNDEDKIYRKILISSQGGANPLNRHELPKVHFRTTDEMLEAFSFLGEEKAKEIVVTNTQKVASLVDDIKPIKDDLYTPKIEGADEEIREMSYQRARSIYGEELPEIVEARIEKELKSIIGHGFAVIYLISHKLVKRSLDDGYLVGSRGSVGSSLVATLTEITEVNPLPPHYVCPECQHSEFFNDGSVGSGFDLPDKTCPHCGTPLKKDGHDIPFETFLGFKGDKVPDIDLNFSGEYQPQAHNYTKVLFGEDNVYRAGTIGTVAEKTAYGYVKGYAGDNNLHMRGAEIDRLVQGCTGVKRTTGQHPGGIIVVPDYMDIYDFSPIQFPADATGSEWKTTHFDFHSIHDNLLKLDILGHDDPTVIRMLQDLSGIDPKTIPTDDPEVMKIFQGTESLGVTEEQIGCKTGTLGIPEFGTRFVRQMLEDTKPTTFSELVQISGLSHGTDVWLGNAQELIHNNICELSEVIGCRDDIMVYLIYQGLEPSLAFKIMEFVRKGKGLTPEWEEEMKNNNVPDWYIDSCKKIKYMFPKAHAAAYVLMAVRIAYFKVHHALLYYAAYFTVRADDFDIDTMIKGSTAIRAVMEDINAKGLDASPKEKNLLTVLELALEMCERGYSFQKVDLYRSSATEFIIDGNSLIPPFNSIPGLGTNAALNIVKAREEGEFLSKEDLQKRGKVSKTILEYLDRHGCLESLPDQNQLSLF", "assay": "biochemical", "conditions": "truncated assay, apparent inhibitor constant; read-out: K1 B.subtilis pol IIIC", "summary_of_the_method": "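Purified pol IIIC incorporating [3H]-dTMP into nicked calf-thymus DNA with Mg2+, DTT and glycerol, 10 min at 30 °C; acid-insoluble radioactivity counted, in triplicate.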"}, "B. subtilis": {"tested_on": "B. subtilis", "assay": "Inhibition of bacterial growth on agar plates (MIC)", "type": "cell-based", "conditions": "Bacillus subtilis, 37° C., 24 hours", "summary_of_the_method": "(§1)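 Agar dilution: compounds from DMSO or water stocks mixed into medium with 1.3% agar at 60° C; 500-1000 CFU plated, incubated 37° C for 24 hours. MIC is the lowest concentration with no colony formation.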"}, "E. fecalis": {"tested_on": "E. fecalis", "assay": "Inhibition of bacterial growth on agar plates (MIC)", "type": "cell-based", "conditions": "37° C., 24 hours", "summary_of_the_method": "as §1"}, "E. fecium": {"tested_on": "E. fecium", "assay": "Inhibition of bacterial growth on agar plates (MIC)", "type": "cell-based", "conditions": "37° C., 24 hours", "summary_of_the_method": "as §1"}, "S.aureus (Smith)": {"tested_on": "S.aureus (Smith)", "assay": "Inhibition of bacterial growth on agar plates (MIC)", "type": "cell-based", "conditions": "Staphylococcus aureus, 37° C., 24 hours", "summary_of_the_method": "as §1"}}, "note": "Like-named read-outs stand apart in the source and are kept apart here.", "data": [{"smiles": "CCc1cc(Nc2cc(=O)n(CCCCN3CCOCC3)c(=O)[nH]2)ccc1C.Cl", "note": "[Compound 59, 3-[4-(N-morpholino)butyl]-6-(3-ethyl-4-methylanilino)uracil hydrochloride]", "values": [{"measurement": "solubility", "setting": "Water solubility", "value": "> 60", "unit": "mg/mL"}, {"measurement": "AUC(0-t)", "setting": "[1]; mouse, plasma, iv, 20 mg/kg, iv, 20 mg/kg, 0-120, read-out: AUC(0-t) (converted)", "value": 3900, "unit": "ng·h/mL"}, {"measurement": "AUC(0-t)", "setting": "[1]; mouse, plasma, iv, 20 mg/kg, iv, 20 mg/kg, read-out: AUC(0-60) (converted)", "value": 3400, "unit": "ng·h/mL"}, {"measurement": "Cmax", "setting": "[1]; mouse, plasma, iv, 20 mg/kg", "value": 27400, "unit": "ng/mL"}, {"measurement": "clearance", "setting": "[1]; mouse, plasma, iv, 20 mg/kg", "value": 77, "unit": "mL/min/kg"}, {"measurement": "half-life", "setting": "[1]; mouse, plasma, iv, 20 mg/kg", "value": 39, "unit": "min"}, {"measurement": "Tmax", "setting": "[1]; mouse, plasma, iv, 20 mg/kg, ncm fit", "value": 0, "unit": "min"}, {"measurement": "Vd", "setting": "[1]; mouse, plasma, iv, 20 mg/kg, read-out: Vd", "value": 4.3, "unit": "L/kg"}, {"measurement": "bioavailability", "setting": "[1]; mouse, plasma, po, read-out: oral bioavailability (absorbed from the po route)", "value": "~50", "unit": "%"}, {"measurement": "Cmax", "setting": "[1]; mouse, plasma, sc, 20 mg/kg", "value": 4600, "unit": "ng/mL"}, {"measurement": "Tmax", "setting": "[1]; mouse, plasma, sc, 20 mg/kg", "value": 5, "unit": "min"}, {"measurement": "half-life", "setting": "[1]; mouse, plasma, sc, 20 mg/kg", "value": 149, "unit": "min"}, {"measurement": "AUC(0-t)", "setting": "[1]; mouse, plasma, sc, 20 mg/kg, sc, 20 mg/kg, (0-180), read-out: AUC(0-t) (converted)", "value": 6770, "unit": "ng·h/mL"}, {"measurement": "AUC(0-t)", "setting": "[1]; mouse, plasma, sc, 20 mg/kg, sc, 20 mg/kg, read-out: AUC(0-60) (converted)", "value": 3330, "unit": "ng·h/mL"}, {"measurement": "Cmax", "setting": "[1]; mouse, plasma, sc, 200 mg/kg", "value": 15000, "unit": "ng/mL"}, {"measurement": "Tmax", "setting": "[1]; mouse, plasma, sc, 200 mg/kg", "value": 30, "unit": "min"}, {"measurement": "half-life", "setting": "[1]; mouse, plasma, sc, 200 mg/kg", "value": 132, "unit": "min"}, {"measurement": "AUC(0-t)", "setting": "[1]; mouse, plasma, sc, 200 mg/kg, sc, 200 mg/kg, (0-180), read-out: AUC(0-t) (converted)", "value": 26900, "unit": "ng·h/mL"}, {"measurement": "AUC(0-t)", "setting": "[1]; mouse, plasma, sc, 200 mg/kg, sc, 200 mg/kg, read-out: AUC(0-60) (converted)", "value": 10600, "unit": "ng·h/mL"}, {"measurement": "Cmax", "setting": "[1]; mouse, plasma, sc, 400 mg/kg", "value": 24100, "unit": "ng/mL"}, {"measurement": "Tmax", "setting": "[1]; mouse, plasma, sc, 400 mg/kg", "value": 30, "unit": "min"}, {"measurement": "half-life", "setting": "[1]; mouse, plasma, sc, 400 mg/kg", "value": 373, "unit": "min"}, {"measurement": "AUC(0-t)", "setting": "[1]; mouse, plasma, sc, 400 mg/kg, sc, 400 mg/kg, (0-360), read-out: AUC(0-t) (converted)", "value": 75000, "unit": "ng·h/mL"}, {"measurement": "AUC(0-t)", "setting": "[1]; mouse, plasma, sc, 400 mg/kg, sc, 400 mg/kg, read-out: AUC(0-60) (converted)", "value": 19800, "unit": "ng·h/mL"}, {"measurement": "Cl", "setting": "[1]; sc, 20 mg/kg", "value": 30.2, "unit": "mL/min/kg"}, {"measurement": "Vd", "setting": "[1]; sc, 20 mg/kg", "value": 6.5, "unit": "L/kg"}, {"measurement": "absorption by the sc route", "setting": "[1]; sc", "value": "completely absorbed"}, {"measurement": "survival of infected mice", "setting": "S. aureus (Smith strain) [2]", "value": "prolonged the survival time of mice relative to vehicle control"}]}, {"smiles": "CN[C@H](CC(C)C)C(=O)N[C@H]1C(=O)N[C@@H](CC(N)=O)C(=O)N[C@H]2C(=O)N[C@H]3C(=O)N[C@H](C(=O)N[C@H](C(=O)O)c4cc(O)cc(O)c4-c4cc3ccc4O)[C@H](O)c3ccc(c(Cl)c3)Oc3cc2cc(c3O[C@@H]2O[C@H](CO)[C@@H](O)[C@H](O)[C@H]2O[C@H]2C[C@](C)(N)[C@H](O)[C@H](C)O2)Oc2ccc(cc2Cl)[C@H]1O", "note": "[Vancomycin, reference compound]", "values": [{"measurement": "animals protected", "setting": "S. aureus (Smith strain) [3]", "value": "protected all animals"}, {"measurement": "survival of infected mice", "setting": "S. aureus (Smith strain) [2]", "value": "protected the animals from this infection"}]}, {"smiles": "CCc1cc(Nc2cc(=O)n(CCCCN3CCOCC3)c(=O)[nH]2)ccc1C", "note": "[Compound 35, 3-[4-(N-morpholino)butyl]-6-(3-ethyl-4-methylanilino)uracil]", "values": [{"measurement": "Ki", "setting": "B.subtilis pol IIIC", "value": 48, "unit": "nM"}, {"measurement": "MIC", "setting": "B. subtilis", "value": 2.5, "unit": "µg/mL"}, {"measurement": "MIC", "setting": "E. fecalis", "value": 5, "unit": "µg/mL"}, {"measurement": "MIC", "setting": "E. fecium", "value": 2.5, "unit": "µg/mL"}, {"measurement": "MIC", "setting": "S.aureus (Smith)", "value": 5, "unit": "µg/mL"}, {"measurement": "solubility", "setting": "Water solubility", "value": "< 1", "unit": "mg/mL"}]}]}
